# In the supplement of paper PMC10307832:
# Legend:
# Experiment in all cases: relative viability (nuclei count vs DMSO), 5 days (fraction); higher = more cells survive
# Quizartinib + Luminespib = compound: CC(C)(C)c1cc(NC(=O)Nc2ccc(-c3cn4c(n3)sc3cc(OCCN5CCOCC5)ccc34)cc2)no1 [Quizartinib] + CCNC(=O)c1noc(-c2cc(C(C)C)c(O)cc2O)c1-c1ccc(CN2CCOCC2)cc1 [Luminespib] (partner 0.01 µM)
# Method in brief: (§1)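 The day after seeding in 1536-well plates, lung cancer cell lines were treated by pin tool with a single drug, or with a fixed anchor-drug dose together with five library-drug doses (not always all listed) in √10 steps. After 5 days, a combined fix-and-stain solution (final 0.05% Triton X-100, 1% formaldehyde, 1 ug/ml Hoechst) was added. Nuclei counted on 4× images gave relative viability as treated counts over vehicle counts, reported as the median of duplicate plates.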
# Quizartinib + Pictilisib = compound: CC(C)(C)c1cc(NC(=O)Nc2ccc(-c3cn4c(n3)sc3cc(OCCN5CCOCC5)ccc34)cc2)no1 [Quizartinib] + CS(=O)(=O)N1CCN(Cc2cc3nc(-c4cccc5[nH]ncc45)nc(N4CCOCC4)c3s2)CC1 [Pictilisib] (partner 1 µM)
# Method in brief: as §1
# YM155 + OSI-027 = compound: COCC[n+]1c2c(n(Cc3cnccn3)c1C)C(=O)c1ccccc1C2=O [YM155] + COc1cccc2cc(-c3nc([C@H]4CC[C@H](C(=O)O)CC4)n4ncnc(N)c34)[nH]c12 [OSI-027] (partner 0.5 µM)
# Method in brief: as §1
# YM155 + AZD7762 = compound: COCC[n+]1c2c(n(Cc3cnccn3)c1C)C(=O)c1ccccc1C2=O [YM155] + NC(=O)Nc1cc(-c2cccc(F)c2)sc1C(=O)N[C@H]1CCCNC1 [AZD7762] (partner 0.2 µM)
# Method in brief: as §1
Cell Line,relative viability (Quizartinib + Luminespib; first compound 0.001 µM),relative viability (Quizartinib + Luminespib; first compound 0.003162 µM),relative viability (Quizartinib + Luminespib; first compound 0.01 µM),relative viability (Quizartinib + Luminespib; first compound 0.1 µM),relative viability (Quizartinib + Pictilisib; first compound 0.001 µM),relative viability (Quizartinib + Pictilisib; first compound 0.003162 µM),relative viability (Quizartinib + Pictilisib; first compound 0.01 µM),relative viability (Quizartinib + Pictilisib; first compound 0.03162 µM),relative viability (Quizartinib + Pictilisib; first compound 0.1 µM),relative viability (YM155 + OSI-027; first compound 0.002 µM),relative viability (YM155 + OSI-027; first compound 0.006325 µM),relative viability (YM155 + OSI-027; first compound 0.02 µM),relative viability (YM155 + OSI-027; first compound 0.06325 µM),relative viability (YM155 + AZD7762; first compound 0.002 µM),relative viability (YM155 + AZD7762; first compound 0.006325 µM),relative viability (YM155 + AZD7762; first compound 0.02 µM),relative viability (YM155 + AZD7762; first compound 0.06325 µM),relative viability (Quizartinib + Luminespib; first compound 0.03162 µM)
NCI-H2126,0.844,0.828,0.798,1.11,0.473,0.504,0.462,0.519,0.541,0.645,0.714,0.761,0.727,0.995,1.04,1.08,1.05,
EMC-BAC-2,1.11,1.15,1.2,1.23,0.561,0.562,0.54,0.511,0.592,0.388,0.364,0.374,0.382,1.04,1.15,1.07,0.785,
NCI-H1793,0.161,0.171,0.467,0.159,0.304,0.398,0.249,0.362,0.334,0.242,0.308,0.259,0.269,0.329,0.619,0.532,0.46,0.174
NCI-H650,0.7,0.762,0.91,0.718,0.992,0.814,0.923,0.923,1.12,0.503,0.542,0.572,0.52,0.835,0.958,1.08,0.776,0.68
NCI-H1437,1.01,1.07,1.09,0.982,0.475,0.37,0.425,0.327,0.314,0.838,0.844,0.871,0.783,1.11,1.08,1.1,0.926,0.782
COR-L 105,0.579,0.765,0.738,0.59,0.397,0.49,0.401,0.365,0.371,0.574,0.694,0.762,0.54,,,,,0.693
CAL-12T,0.456,0.373,0.638,0.363,0.47,0.536,0.308,0.398,0.547,0.657,0.619,0.746,0.529,0.621,0.715,0.672,0.534,0.357
IA-LM,,,,,0.356,0.299,0.397,0.231,0.342,,,,,,,,,
ChaGo-K-1,0.522,0.635,0.682,0.601,0.49,0.905,0.669,,1.01,0.474,0.536,0.549,0.662,0.847,0.822,0.915,0.821,0.625
LU99A,0.268,0.216,0.234,0.237,0.312,0.317,0.327,0.309,0.291,0.285,0.274,0.322,0.28,0.553,0.27,0.412,0.28,0.257
